Test results published in patent publication US20240368351A1, “FACTORS CONTROLLING DRUG RELEASE IN CROSS-LINKED POLY(VALEROLACTONE) BASED MATRICES” (Pendant Biosciences, Inc., priority 2019, published 2024).
≈ marks a conversion by molar mass, not a printed value.

Tests used:
[1] = In vitro drug release from cross-linked matrices (CPs), sample-and-separate, with mathematical modeling (Fick diffusion); assay type: physicochemical; details: for cumulative release from the drug-loaded crosslinked copolymer: embodiment statement
Method: Evaluation of in vitro drug release: impact of the nature of the drug, polymer and release media: In the in vitro release studies the impact of a number of variables was evaluated including nature of the drug, compatibility between the drug and the polymer matrix, degree of crystallinity of the matrix, M.W. of the copolymer, cross-linking density and the composition of the release media. The commonly used, sample-and-separate method was employed to evaluate drug release from the cross-linked matrices. D'Souza, S. S.; DeLuca, P. P. Methods to Assess in vitro Drug Release from Injectable Polymeric Particulate Systems. Pharmaceutical Research 2006, 23, 3, 460-474.
The Peppas-Sahlin model, where diffusion and polymer relaxation are known to be the underlying drivers of drug release provided the best fit in terms of R^2adjusted (FIGS. 8A and 8C) For cylindrical shaped matrices, Fickian diffusion is considered to be operative when the ratio of diameter to thickness (n or m) of the matrix is equal to or less than 0.45. If the value is […], the drug release mechanism is considered non-Fickian; whereas, if n is 0.89 drug release is considered to be case II transport. Herein, the dimension and the geometry of the matrices evaluated have a value of 0.78<n<0.80. […]
Protocols for drug analysis by HPLC and cytotoxicity evaluation of the cross-linked matrices: The drug release was analyzed by reverse phase HPLC using an Agilent 1200 HPLC system with Agilent ChemStation software, an XDB C18 column (150×4.6 mm i.d+guard column) and UV detection. […] Drug concentrations were quantified using calibration curves using standards that ranged in concentration from 1 to 100 μg/ml (0.9986≤R^2≤1).
The CPs were incubated at 37° C. under constant stirring and at pre-determined time points, a 1 ml aliquout was removed and replaced with 1 mL of fresh media and the samples were immediately frozen at −20° C. for storage prior to HPLC analysis. […] The drug was reconstituted in 1 ml of the HPLC mobile phase and analyzed to correct the DLC and release curves. […]

[2] = logP (octanol-water partition) by shake tube method; assay type: physicochemical
[3] = Drug solubility in different release media (PBS with Tween 80 or SDS); assay type: physicochemical; details: for solubility at 48 h: release media (PBS with Tween 80 or SDS), 37 °C, pH 7.4, aqueous with cosolvent or surfactant or cyclodextrin, thermodynamic from solid
Method: Mikkelsen, L. M., Enzyme solubility in liquid detergent and use of detergent composition. […] Crotts, G.; Park, T. G. Protein delivery from poly(lactic-co-glycolic acid) biodegradable microspheres: Release kinetics and stability issues. […] FDA.
The solutions were centrifuged at 8000 rpm for 10 minutes, and a 1 ml aliquot was withdrawn, filtered through a 0.45 μm nylon membrane, and analyzed by HPLC.

[4] = Solubility of Drug X in organic solvents and water; assay type: physicochemical
[5] = Stability of Drug X freebase in PBS with or without SDS by HPLC; assay type: physicochemical
Text: The appearance of second peak correlates with concentration of the drug.

[6] = cited from earlier work
[7] = PBS with SDS, 120 μg/ml, 2 days
[8] = PBS with SDS, 120 μg/ml, 3 days
[9] = PBS with SDS, 120 μg/ml, 4 days

Structure (SMILES): CC(=O)Nc1ccc(O)cc1 [Acetaminophen, acetaminophen]
- period of release ([1]; from all matrices, PBS with 0.5% SDS, 37° C.): less than a week

Structure (SMILES): COc1cc(/C=C/C(=O)CC(=O)/C=C/c2ccc(O)c(OC)c2)ccc1O [Curcumin, curcumin]
- Calculated LogP [2]: 3
- solubility at 48 h [3]: 45.6 ± 1.05 µg/mL (≈ 124 µM)

Structure (SMILES): CC(C)OC(=O)[C@H](C)N[P@](=O)(CO[C@H](C)Cn1cnc2c(N)ncnc21)Oc1ccccc1 [Drug X freebase]
- Solubility EtOH ([4]; 5 mg/100 μl, cell wraps: 'Soluble, and' / 'transparent'): Soluble, and
- area of the HPLC peak corresponding to Drug X freebase as a function of time ([5]; PBS with 0.5% SDS): constantly decreased as a function of time
- Area (Drug X freebase peak) ([5]; PBS with SDS, 12 μg/ml, 1 hr): 191.5
- Area (Drug X freebase peak) ([5]; PBS with SDS, 12 μg/ml, 3 hrs): 185.7
- Area (Drug X freebase peak) ([5]; PBS with SDS, 12 μg/ml, 7 hrs): 182.8
- Area (Drug X freebase peak) ([5]; PBS with SDS, 12 μg/ml, 1 day): 179.2
- Area (Drug X freebase peak) ([5]; PBS with SDS, 12 μg/ml, 2 days): 178.7
- Area (Drug X freebase peak) ([5]; PBS with SDS, 12 μg/ml, 3 days): 155.2
- Area (Drug X freebase peak) ([5]; PBS with SDS, 12 μg/ml, 4 days): 155.8
- Area (Drug X freebase peak) ([5]; PBS with SDS, 12 μg/ml, T = 0): 192.6
- Area (2nd) second peak ([5]; PBS with SDS, 60 μg/ml, 1 hr): (99.6)
- Area (Drug X freebase peak) ([5]; PBS with SDS, 60 μg/ml, 1 hr): 934.7
- Area (2nd) second peak ([5]; PBS with SDS, 60 μg/ml, 3 hrs): (85.18)
- Area (Drug X freebase peak) ([5]; PBS with SDS, 60 μg/ml, 3 hrs): 909.05
- Area (2nd) second peak ([5]; PBS with SDS, 60 μg/ml, 7 hrs): (95.5)
- Area (Drug X freebase peak) ([5]; PBS with SDS, 60 μg/ml, 7 hrs): 906.7
- Area (2nd) second peak ([5]; PBS with SDS, 60 μg/ml, 1 day): (87.6)
- Area (Drug X freebase peak) ([5]; PBS with SDS, 60 μg/ml, 1 day): 867.8
- Area (2nd) second peak ([5]; PBS with SDS, 60 μg/ml, 2 days): (77.0)
- Area (Drug X freebase peak) ([5]; PBS with SDS, 60 μg/ml, 2 days): 783.7
- Area (2nd) second peak ([5]; PBS with SDS, 60 μg/ml, 3 days): (72.3)
- Area (Drug X freebase peak) ([5]; PBS with SDS, 60 μg/ml, 3 days): 712.2
- Area (2nd) second peak ([5]; PBS with SDS, 60 μg/ml, 4 days): (68.1)
- Area (Drug X freebase peak) ([5]; PBS with SDS, 60 μg/ml, 4 days): 677.3
- Area (2nd) second peak ([5]; PBS with SDS, 60 μg/ml, T = 0): (73.9)
- Area (Drug X freebase peak) ([5]; PBS with SDS, 60 μg/ml, T = 0): 929.6
- Area (2nd) second peak ([5]; PBS with SDS, 120 μg/ml, 1 hr): (223.0)
- Area (Drug X freebase peak) ([5]; PBS with SDS, 120 μg/ml, 1 hr): 1768.4
- Area (2nd) second peak ([5]; PBS with SDS, 120 μg/ml, 3 hrs): (219.47)
- Area (Drug X freebase peak) ([5]; PBS with SDS, 120 μg/ml, 3 hrs): 1764.9
- Area (2nd) second peak ([5]; PBS with SDS, 120 μg/ml, 7 hrs): (212.8)
- Area (Drug X freebase peak) ([5]; PBS with SDS, 120 μg/ml, 7 hrs): 1707.5
- Area (2nd) second peak ([5]; PBS with SDS, 120 μg/ml, 1 day): (189.8)
- Area (Drug X freebase peak) ([5]; PBS with SDS, 120 μg/ml, 1 day): 1613.5
- Area (2nd) second peak [5, 7]: (193.9)
- Area (Drug X freebase peak) [5, 7]: 1539.2
- Area (2nd) second peak [5, 8]: (167.5)
- Area (Drug X freebase peak) [5, 8]: 1401.2
- Area (2nd) second peak [5, 9]: (160.3)
- Area (Drug X freebase peak) [5, 9]: 1318.3
- Area (2nd) second peak ([5]; PBS with SDS, 120 μg/ml, T = 0): (218.0)
- Area (Drug X freebase peak) ([5]; PBS with SDS, 120 μg/ml, T = 0): 1849.3
- HPLC peak corresponding to Drug X free base as a function of time ([5]; PBS without SDS, regardless of concentration): constantly decreasing as a function of time
- Area (Drug X freebase peak) ([5]; Table 47, PBS with SDS, 12 μg/ml, 1 hr): 164.51
- Area (Drug X freebase peak) ([5]; Table 47, PBS with SDS, 12 μg/ml, 3 hrs): 162.2
- Area (Drug X freebase peak) ([5]; Table 47, PBS with SDS, 12 μg/ml, 7 hrs): 161.0
- Area (Drug X freebase peak) ([5]; Table 47, PBS with SDS, 12 μg/ml, 1 day): 132.2
- Area (Drug X freebase peak) ([5]; Table 47, PBS with SDS, 12 μg/ml, 2 days): 103.6
- Area (Drug X freebase peak) ([5]; Table 47, PBS with SDS, 12 μg/ml, 3 days): 84.2
- Area (Drug X freebase peak) ([5]; Table 47, PBS with SDS, 12 μg/ml, 4 days): 57.5
- Area (Drug X freebase peak) ([5]; Table 47, PBS with SDS, 12 μg/ml, T = 0): 169.2
- Area (Drug X freebase peak) ([5]; Table 47, PBS with SDS, 60 μg/ml, 1 hr): 897.8
- Area (Drug X freebase peak) ([5]; Table 47, PBS with SDS, 60 μg/ml, 3 hrs): 875.2
- Area (Drug X freebase peak) ([5]; Table 47, PBS with SDS, 60 μg/ml, 7 hrs): 850.6
- Area (Drug X freebase peak) ([5]; Table 47, PBS with SDS, 60 μg/ml, 1 day): 663.9
- Area (Drug X freebase peak) ([5]; Table 47, PBS with SDS, 60 μg/ml, 2 days): 511.8
- Area (Drug X freebase peak) ([5]; Table 47, PBS with SDS, 60 μg/ml, 3 days): 361.7
- Area (Drug X freebase peak) ([5]; Table 47, PBS with SDS, 60 μg/ml, 4 days): 303.9
- Area (Drug X freebase peak) ([5]; Table 47, PBS with SDS, 60 μg/ml, T = 0): 903.4
- Area (Drug X freebase peak) ([5]; Table 47, PBS with SDS, 120 μg/ml, 1 hr): 1797.8
- Area (Drug X freebase peak) ([5]; Table 47, PBS with SDS, 120 μg/ml, 3 hrs): 1790.0
- Area (Drug X freebase peak) ([5]; Table 47, PBS with SDS, 120 μg/ml, 7 hrs): 1687.7
- Area (Drug X freebase peak) ([5]; Table 47, PBS with SDS, 120 μg/ml, 1 day): 1319.2
- Area (Drug X freebase peak) ([5]; Table 47, PBS with SDS, 120 μg/ml, 2 days): 1023.1
- Area (Drug X freebase peak) ([5]; Table 47, PBS with SDS, 120 μg/ml, 3 days): 722.9
- Area (Drug X freebase peak) ([5]; Table 47, PBS with SDS, 120 μg/ml, 4 days): 593.4
- Area (Drug X freebase peak) ([5]; Table 47, PBS with SDS, 120 μg/ml, T = 0): 1841.8

Structure (SMILES): CC(C)OC(=O)[C@H](C)N[P@](=O)(CO[C@H](C)Cn1cnc2c(N)ncnc21)Oc1ccccc1.CC(C)OC(=O)[C@H](C)N[P@](=O)(CO[C@H](C)Cn1cnc2c(N)ncnc21)Oc1ccccc1.O=C(O)/C=C/C(=O)O [Drug X fumarate]
- Solubility in EtOH/DMSO (50/50) ([4]; 5 mg per 100 mL or μL): Soluble, and
- Solubility in DMSO/Water (50/50) ([4]; 5 mg per 200 mL or μL): Insoluble
- Solubility in Water ([4]; 5 mg per 200 mL or μL): Insoluble

Structure (SMILES): CC(=O)O[C@H]1C(=O)[C@@]2(C)[C@H]([C@H](OC(=O)c3ccccc3)[C@]3(O)C[C@H](OC(=O)[C@H](O)[C@@H](NC(=O)c4ccccc4)c4ccccc4)C(C)=C1C3(C)C)[C@]1(OC(C)=O)CO[C@@H]1C[C@@H]2O [Paclitaxel, paclitaxel]
- logP ([2]; read-out: Calculated LogP): 2.7
- solubility, times greater in 0.5% SDS than in 0.1% SDS ([3]; PBS): 10 times
- solubility, times greater in 0.5% SDS than in 0.1% Tween 80 ([3]; PBS): 50 times
- solubility at 48 h [3]: 106 ± 0.57 µg/mL (≈ 124 µM)
- cumulative release from the drug-loaded crosslinked copolymer ([1]; after 35 days): about 58 wt %

Structure (SMILES): CC1(C)S[C@@H]2[C@H](NC(=O)Cc3ccccc3)C(=O)N2[C@H]1C(=O)O [Penicillin G, reference compound]
- Log P [6]: 1.83
- Water solubility [6]: water (0.21 mg/mL)
- Water solubility (words) [6]: Slightly soluble in
- pKa [6]: 3.96

Structure (SMILES): CC(C)(C)CC(=O)OCC(=O)[C@@]12OC(C)(C)O[C@@H]1C[C@H]1[C@@H]3CCC4=CC(=O)C=C[C@]4(C)[C@@]3(F)[C@@H](O)C[C@@]12C [Triamcinolone hexacetonide, triamcinolone hexacetonide]
- solubility at 48 h [3]: 37.9 ± 0.4 µg/mL (≈ 71.1 µM)
- cumulative release from the drug-loaded crosslinked copolymer ([1]; after 34 days): about 42 wt %
